Assay results published in patent US5734052A (Merrell Pharmaceuticals Inc., priority 1995, dated 1998).

How the values were obtained:
[1] = molecular target: T1, adenosine A-2 receptors (Rattus norvegicus, UniProt P30543); experiment: Affinity for brain adenosine A-2 receptors ([3H]NECA competition, striatal membranes); format: binding; settings: rat brain striatum membranes, 1 μM CHA in tube addition, 25° C., 60 minutes, read-out: A2 Ki
T1 construct: tissue Charles River; host or cells: striatal membranes of young male rats (C-D strain)
T1 sequence (P30543 whole entry): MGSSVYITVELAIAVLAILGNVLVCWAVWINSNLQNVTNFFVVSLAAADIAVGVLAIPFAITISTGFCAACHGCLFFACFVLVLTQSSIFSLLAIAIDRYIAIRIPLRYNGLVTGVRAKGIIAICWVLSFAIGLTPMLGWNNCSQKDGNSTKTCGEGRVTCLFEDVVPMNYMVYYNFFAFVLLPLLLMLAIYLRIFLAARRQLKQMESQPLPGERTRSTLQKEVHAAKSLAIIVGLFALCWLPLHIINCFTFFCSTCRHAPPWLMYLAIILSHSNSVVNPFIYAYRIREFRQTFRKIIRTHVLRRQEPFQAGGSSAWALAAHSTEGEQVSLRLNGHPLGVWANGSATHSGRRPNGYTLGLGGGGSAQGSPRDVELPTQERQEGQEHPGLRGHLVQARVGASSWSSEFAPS
Description: Young male rats (C-D strain), obtained from Charles River, are killed by decapitation and the brain was removed. Membranes for ligand binding are isolated from rat brain striatum. The tissue is homogenized in 20 vol ice-cold 50 mM Tris-HCl buffer (pH 7.7) using a polytron (setting for 6 to 20 seconds). The homogenate is centrifuged at 50,000×g for 10 minutes at 4° C. The pellet is again homogenized in a polytron in 20 vol of buffer, and centrifuged as before. The pellet is finally resuspended in 40 vol of 50 mM Tris-HCl (pH 7.7) per gram of original wet weight of tissue.
Incubations are carried out at 25° C. for 60 minutes. Each tube is filtered through GF/B glass fiber filters using a vacuum. The filters are rinsed two times with 5 ml of the ice-cold buffer. […] The filters are counted by liquid scintillation spectrometry.
Specific binding of [3H]NECA is measured as the excess over blanks run in the presence of 100 μM 2-chloro-adenosine. Total membrane-bound radioactivity is about 2.5% of that added to the test tubes. […] Specific binding to membranes is about 50% of the total bound.

[2] = molecular target: T2, Adenosine A-1 receptor (Rattus norvegicus, UniProt P25099); experiment: Affinity for brain adenosine A-1 receptor binding sites ([3H]cyclohexyladenosine competition); settings: ratio of A2 Ki to A1 Ki
T2 sequence (P25099 1-326): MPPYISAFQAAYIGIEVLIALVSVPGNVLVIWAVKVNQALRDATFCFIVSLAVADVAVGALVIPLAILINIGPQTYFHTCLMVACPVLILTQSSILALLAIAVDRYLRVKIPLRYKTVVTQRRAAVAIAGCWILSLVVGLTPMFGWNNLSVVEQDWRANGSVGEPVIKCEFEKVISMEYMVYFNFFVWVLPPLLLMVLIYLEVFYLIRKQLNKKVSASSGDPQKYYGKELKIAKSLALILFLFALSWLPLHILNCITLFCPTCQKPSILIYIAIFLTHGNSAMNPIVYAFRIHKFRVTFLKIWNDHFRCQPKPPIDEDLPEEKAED

[3] = molecular target: T2, Adenosine A-1 receptor
[4] = tested on: adenosine receptor; settings: in vivo; cited from earlier work
[5] = tested on: A-1 receptors; settings: in vitro, A-1 vs A-2; cited from earlier work

CCCn1c(=O)c2[nH]c([C@@H]3CCC[C@H]3c3ccccc3)nc2n(CCC)c1=O (relative stereo) [8-(trans-2-Phenylcyclopentyl)-1,3-dipropyl-3,9-dihydropurine-2,6-dione]
Ki [1]: 2.72 µM

CCCn1c(=O)c2nc(C3CCc4ccccc4C3)[nH]c2n(CCC)c1=O (stereo not shown) [1,3-Dipropyl-8-(1,2,3,4-tetrahydronaphthalen-2-yl)-3,9-dihydropurine-2,6-dione]
Ki [1]: 10.3 µM

CCCn1c(=O)c2nc(CC(C)c3ccccc3)[nH]c2n(CCC)c1=O (stereo not shown) [8-(2-Phenylpropyl)-1,3-dipropyl-3,9-dihydropurine-2,6-dione]
A2/A1 [2]: 18
Ki [1]: 1.74 µM
Ki [3]: 0.0943 µM

CCCn1c(=O)c2[nH]c(-c3ccc(OCC(=O)NCCN)cc3)nc2n(CCC)c1=O [XAC]
potency in antagonizing effects of adenosine analogs on heart rate vs blood pressure [4]: much more potent in antagonizing the effects of adenosine analogs on heart rate than on blood pressure

CCCn1c(=O)c2[nH]c(-c3ccc(OCC(=O)O)cc3)nc2n(CCC)c1=O [XCC]
adenosine receptor selectivity [5]: adenosine receptor nonselective
